Experimental data from patent publication US20100062078A1, “PHARMACEUTICAL COMPOSITION FOR TREATING CANCER AND THE SIGNALING PATHWAY THEREOF” (priority 2008, published 2010).

How the values were obtained:
[1] = Body weight, complete blood count and biochemical profile of MDAH-2774-xenografted nude mice; assay type: in vivo; conditions: for Creatine / Got (glutamic-oxaloacetic transaminase) / Gpt (glutamic-pyruvic transaminase) / HCT (hematocrit) / MCV (mean corpuscular volume) / PLT / RBC / WBC / Body weight: MDAH-2774 xenograft
LNCap cells [2] = assay: Annexin V apoptosis assay; assay type: cell-based, human; conditions: 10 μM, 3 hours
Experimental: (§1) The theory of this assay is to detect early apoptotic cells during the apoptotic progression. The ovarian cancer cells and the prostate cancer cells respectively were incubated with protoapigenone at 10 μM for 3 hours on chamber slides, washed with cold PBS twice and stained with a binding buffer containing annexin V-fluorescein isothiocyanate (FITC) (1 mg/ml; Strong Biotech, Taipei, Taiwan) and 4,6-diamidino-2-phenylinodole (Sigma-Aldrich) at 25° C. for 15 minutes. The stained cells were washed with PBS twice and observed under the fluorescent microscope.

SKOV3 [3] = assay: Annexin V apoptosis assay; assay type: cell-based, human; conditions: SKOV3, 10 μM, 3 hours
Experimental: as §1

MDAH-2774 [4] = assay: Annexin V apoptosis assay; assay type: cell-based, human; conditions: MDAH-2774, 10 μM, 3 hours
Experimental: as §1

LNCap cells [5] = assay: Cell cycle analysis (PI flow cytometry); assay type: cell-based, human; conditions: 6 hours and 12 hours
Experimental: The ovarian cancer cells and the prostate cancer cells respectively were treated with protoapigenone at different concentrations (0, 2.5, 5 and 10 μM) for 24 hours and 6 hours (or 12 hours). These cells were harvested by trypsin and fixed with 70% ethanol for 1 hour, washed with phosphate buffered saline (PBS) twice, and resuspended in propidium iodide (PI)/RNase A solution for 30 minutes. In accordance with the mechanism of DNA stained with propidium iodide, the cell cycle and sub-G1 distribution were detected by the FACScan flow cytometry (Becton Dickinson, San Jose, Calif.), and data analysis was done with CellQuest software (BD Bioscience).

C33A = assay: XTT cell proliferation assay (cytotoxicity); assay type: cell-based; conditions: Homo sapiens, C-33-A; cervical cancer cell line C33A
Experimental: (§2) Cells were seeded at 7×10^3 per well in 96-well culture plates before treatment with different concentrations of protoapigenone for 12, 24 and/or 48 hours. Next, the cytotoxicity of protoapigenone was determined using XTT cell proliferation assay (Sigma, St. Louis, Mo.). The absorbance of wavelength at 490 nm (OD490) and 650 nm (OD650) were determined respectively by enzyme-linked immunosorbent assay (ELISA) reader, and 50% of inhibitory concentration (IC50) was calculated by the value of OD490-OD650. In addition, in order to evaluate the long-term effect, the cells were treated with different concentration of protoapigenone for 3 hours, then were incubated with fresh medium for 14 days so as to form colonies. Finally, the cells were stained with crystal violet and were observed under the microscope.

SKOV3 [6] = assay: XTT cell proliferation assay (cytotoxicity); assay type: cell-based; conditions: Homo sapiens, SK-OV-3; ovarian cancer cell line SKOV3
Experimental: as §2

MDA-MB-468 = assay: XTT cell proliferation assay (cytotoxicity); assay type: cell-based; conditions: Homo sapiens; breast cancer cell line MDA-MB-468
Experimental: as §2

[7] = XTT cell proliferation assay (cytotoxicity); assay type: cell-based
Experimental: as §2

HeLa = assay: XTT cell proliferation assay (cytotoxicity); assay type: cell-based; conditions: Homo sapiens; cervical cancer cell line HeLa
Experimental: as §2

T47D = assay: XTT cell proliferation assay (cytotoxicity); assay type: cell-based; conditions: Homo sapiens; breast cancer cell line T47D
Experimental: as §2

p38 MAPK = assay: Immunoblotting, phosphorylation in LNCap cells; assay type: cell-based, human; conditions: LNCap, exposure for 1 hour
Text: (§3) The concentration of protein supernatant was further determined using the Bio-Rad protein assay kit (Bio-Rad Laboratories, Hercules, Calif.). Whole cell lysates were separated on polyacrylamide sodium dodecyl sulfate (SDS) gels and the proteins were transferred onto the nitrocellulose membrane. Proteins were detected sequentially by the specific primary antibodies, followed by peroxidase-conjugated secondary antibodies, and visualized by the Enhanced chemiluminescence detection system (Amersham, N.J.).

JNK½ = assay: Immunoblotting, phosphorylation in LNCap cells; assay type: cell-based, human; conditions: exposure for 1 hour
Text: as §3

MDAH-2774 [8] = assay: Clonogenic assay (colony formation); assay type: cell-based, human; conditions: 3 hours treatment, 14 days in fresh medium
Experimental: as §2

SKOV3 cells = assay: Cell survival assay (trypan blue) at cell cycle phases; assay type: cell-based, human; conditions: 4 hours
Experimental: SKOV3 cells at various cell cycle phases were incubated in the 6-cm Petri dishes and treated with protoapigenone at different dosages ([…]). Subsequently, the cells were harvested and mixed with trypan blue at a ratio of 1:1. The stained apoptotic cells were observed under the microscope.

Question: With O=C1C=CC(O)(c2cc(=O)c3c(O)cc(O)cc3o2)C=C1 [protoapigenone] as the compound, how does the “impairment of hematopoiesis, liver function, or renal function” value ([1]; MDAH-2774-xenografted nude mice, intraperitoneal injection, 7 weeks) read?
Answer: The value was “no significant impairment”.

Question: What about the Creatine ([1]; high dose, 7 weeks) of the same compound?
Answer: Its Creatine is 0.5 ± 0.0 mg/dL.

Question: What about the “Got (glutamic-oxaloacetic transaminase)” value ([1]; high dose, 7 weeks) of the same compound?
Answer: Its value is 148.2 ± 59.3 U/L.

Question: And the “Gpt (glutamic-pyruvic transaminase)” value ([1]; high dose, 7 weeks)?
Answer: The value was 52.0 ± 17.6 U/L.

Question: What about the “HCT (hematocrit)” value ([1]; high dose, 7 weeks) of the same compound?
Answer: The value was 46.1 ± 1.8%.

Question: What about the “MCV (mean corpuscular volume)” value ([1]; high dose, 7 weeks) of the same compound?
Answer: Its value is 50.9 ± 0.9 fL.

Question: And the PLT ([1]; high dose, 7 weeks)?
Answer: The PLT was 916.3 ± 100.5 10 × 3/μl.

Question: What about the RBC ([1]; high dose, 7 weeks) of the same compound?
Answer: The RBC was 9.1 ± 0.3 10^6/µL.

Question: And the WBC ([1]; high dose, 7 weeks)?
Answer: Its WBC is 2.0 ± 0.9 10 × 3/μl.

Question: What about the Body weight ([1]; high dose, after treatment (7 weeks)) of the same compound?
Answer: The Body weight was 19.8 ± 1.1 g.

Question: What about the Body weight ([1]; high dose, before treatment) of the same compound?
Answer: The Body weight was 19.6 ± 0.8 g.

Question: What about the Creatine ([1]; low dose, 7 weeks) of the same compound?
Answer: The Creatine was 0.5 ± 0.0 mg/dL.

Question: And the “Got (glutamic-oxaloacetic transaminase)” value ([1]; low dose, 7 weeks)?
Answer: The value was 119.5 ± 45.5 U/L.

Question: And the “Gpt (glutamic-pyruvic transaminase)” value ([1]; low dose, 7 weeks)?
Answer: The value was 46.3 ± 16.7 U/L.

Question: What about the “HCT (hematocrit)” value ([1]; low dose, 7 weeks) of the same compound?
Answer: Its value is 43.5 ± 3.6%.

Question: What about the “MCV (mean corpuscular volume)” value ([1]; low dose, 7 weeks) of the same compound?
Answer: The value was 56.2 ± 8.9 fL.

Question: And the PLT ([1]; low dose, 7 weeks)?
Answer: The PLT was 1094.5 ± 124.9 10 × 3/μl.

Question: And the RBC ([1]; low dose, 7 weeks)?
Answer: Its RBC is 7.8 ± 1.4 10^6/µL.

Question: And the WBC ([1]; low dose, 7 weeks)?
Answer: Its WBC is 2.6 ± 1.2 10 × 3/μl.

Question: What about the Body weight ([1]; low dose, after treatment (7 weeks)) of the same compound?
Answer: Its Body weight is 19.4 ± 0.1 g.

Question: And the Body weight ([1]; low dose, before treatment)?
Answer: Its Body weight is 19.6 ± 0.6 g.

Question: And the “ratio of annexin V-FITC positive cells” value (LNCap cells [2])?
Answer: Its value is 24.2±1.3%.

Question: And the “cell apoptosis (annexin V-FITC)” value (SKOV3 [3])?
Answer: The value was 34.2%.

Question: And the “cell apoptosis (annexin V-FITC)” value (MDAH-2774 [4])?
Answer: The value was 24.5%.

Question: What about the cell cycle distribution (LNCap cells [5]) of the same compound?
Answer: The cell cycle distribution was “arrests the LNCap cells at S and G2/M phases”.

Question: And the IC50 (C33A)?
Answer: Its IC50 is 4.69 ± 0.21 µM.

Question: What about the IC50 (SKOV3 [6]) of the same compound?
Answer: Its IC50 is 0.78 ± 0.28 µM.

Question: What about the IC50 (MDA-MB-468) of the same compound?
Answer: Its IC50 is 3.33 ± 1.25 µM.

Question: What about the IC50 ([7]; HOSE 6-3 immortalized ovarian epithelial cells, immortalized human ovarian epithelial cells HOSE 6-3) of the same compound?
Answer: The IC50 was 8.98 ± 0.33 µM.

Question: What about the IC50 ([7]; HOSE 11-12 immortalized ovarian epithelial cells, immortalized human ovarian epithelial cells HOSE 11-12) of the same compound?
Answer: Its IC50 is 10.1 ± 0.53 µM.

Question: And the IC50 ([7]; MCF-10A immortalized breast epithelial cells, immortalized human breast epithelial cell MCF-10A)?
Answer: Its IC50 is 33.6 ± 0.53 µM.

Question: And the IC50 (HeLa)?
Answer: Its IC50 is 3.66 ± 0.61 µM.

Question: What about the IC50 (T47D) of the same compound?
Answer: Its IC50 is 5.13 ± 0.23 µM.

Question: And the “phosphorylation of p38 MAPK” value (p38 MAPK)?
Answer: Its value is “dramatic increase”.

Question: What about the “phosphorylation of JNK½” value (JNK½) of the same compound?
Answer: Its value is “dramatic increase”.

Question: What about the “ratio of colony formation” value (MDAH-2774 [8]) of the same compound?
Answer: The value was “decrease along with the increased protoapigenone concentrations”.

Question: What about the “decrease in number of SKOV3 cells proliferated at G2 phase” value (SKOV3 cells; 5 μM) of the same compound?
Answer: The value was 20.3%.

Question: What about the “decrease in number of SKOV3 cells proliferated at M phase” value (SKOV3 cells; 5 μM) of the same compound?
Answer: The value was 44.8%.

Question: What about the “decrease in number of SKOV3 cells proliferated at S phase” value (SKOV3 cells; 5 μM) of the same compound?
Answer: Its value is 23.5%.

Question: And the “decrease in number of SKOV3 cells proliferated at G2 phase” value (SKOV3 cells; 10 μM)?
Answer: The value was 34.7%.

Question: And the “decrease in number of SKOV3 cells proliferated at M phase” value (SKOV3 cells; 10 μM)?
Answer: Its value is 70.5%.

Question: What about the “decrease in number of SKOV3 cells proliferated at S phase” value (SKOV3 cells; 10 μM) of the same compound?
Answer: The value was 45.4%.
